What was measured:
[1] = molecular target: 5-hydroxytryptamine receptor 7 (Homo sapiens, UniProt P34969); test: Displacement of [3H]-5-CT from human 5-HT7b receptor expressed in HEK293 cell membranes after 1 hr at 37 degC by microbeta scintillation counting analysis
[2] = molecular target: T1, 5-hydroxytryptamine receptor 1A (Homo sapiens, UniProt P08908); test: Displacement of [3H]-8-OH-DPAT from human 5-HT1A receptor expressed in HEK293 cell membranes after 1 hr by microbeta scintillation counting analysis
T1 sequence (P08908 whole entry): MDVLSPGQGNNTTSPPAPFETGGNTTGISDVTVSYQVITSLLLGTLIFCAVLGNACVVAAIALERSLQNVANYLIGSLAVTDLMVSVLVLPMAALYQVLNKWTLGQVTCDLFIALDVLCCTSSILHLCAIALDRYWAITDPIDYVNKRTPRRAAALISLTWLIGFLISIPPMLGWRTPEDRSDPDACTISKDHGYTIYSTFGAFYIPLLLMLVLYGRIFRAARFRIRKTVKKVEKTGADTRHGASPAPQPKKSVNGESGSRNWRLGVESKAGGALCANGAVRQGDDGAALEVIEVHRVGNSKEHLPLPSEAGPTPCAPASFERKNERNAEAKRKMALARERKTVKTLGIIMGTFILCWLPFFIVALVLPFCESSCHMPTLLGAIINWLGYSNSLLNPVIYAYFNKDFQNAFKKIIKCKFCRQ

Homo sapiens [3] = species: Homo sapiens; test: Selectivity index, ratio of Ki for human 5-HT6 receptor expressed in HEK293 cell membranes to Ki for human 5-HT7b receptor expressed in HEK293 cell membranes; assay type: cell-based
[4] = molecular target: 5-hydroxytryptamine receptor 6 (Homo sapiens, UniProt P50406); test: Displacement of [3H]-LSD from human 5-HT6 receptor expressed in HEK293 cell membranes after 1 hr at 37 degC by microbeta scintillation counting analysis
5-hydroxytryptamine receptor 6, sequence (P50406 whole entry): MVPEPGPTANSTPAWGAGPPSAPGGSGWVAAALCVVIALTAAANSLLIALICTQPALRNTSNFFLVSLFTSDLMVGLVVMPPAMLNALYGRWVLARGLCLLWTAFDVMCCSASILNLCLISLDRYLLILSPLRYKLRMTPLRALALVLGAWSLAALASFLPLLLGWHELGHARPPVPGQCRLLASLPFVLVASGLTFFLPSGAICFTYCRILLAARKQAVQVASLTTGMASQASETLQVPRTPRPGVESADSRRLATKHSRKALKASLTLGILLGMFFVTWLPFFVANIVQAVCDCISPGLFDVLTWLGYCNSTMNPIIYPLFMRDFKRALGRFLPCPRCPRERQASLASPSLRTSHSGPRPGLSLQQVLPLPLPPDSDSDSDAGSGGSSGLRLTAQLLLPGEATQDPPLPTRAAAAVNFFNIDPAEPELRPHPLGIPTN

Homo sapiens [5] = species: Homo sapiens; test: Selectivity index, ratio of Ki for human 5-HT2A receptor expressed in CHO-K1 cell membranes to Ki for human 5-HT7b receptor expressed in HEK293 cell membranes; assay type: cell-based
Homo sapiens [6] = species: Homo sapiens; test: Selectivity index, ratio of Ki for human 5-HT1A receptor expressed in HEK293 cell membranes to Ki for human 5-HT7b receptor expressed in HEK293 cell membranes; assay type: cell-based
[7] = molecular target: 5-hydroxytryptamine receptor 2A (Homo sapiens, UniProt P28223); test: Displacement of [3H]-Ketanserin from human 5-HT2A receptor expressed in CHO-K1 cell membranes after 1.5 hrs by microbeta scintillation counting analysis
5-hydroxytryptamine receptor 2A, sequence (P28223 whole entry): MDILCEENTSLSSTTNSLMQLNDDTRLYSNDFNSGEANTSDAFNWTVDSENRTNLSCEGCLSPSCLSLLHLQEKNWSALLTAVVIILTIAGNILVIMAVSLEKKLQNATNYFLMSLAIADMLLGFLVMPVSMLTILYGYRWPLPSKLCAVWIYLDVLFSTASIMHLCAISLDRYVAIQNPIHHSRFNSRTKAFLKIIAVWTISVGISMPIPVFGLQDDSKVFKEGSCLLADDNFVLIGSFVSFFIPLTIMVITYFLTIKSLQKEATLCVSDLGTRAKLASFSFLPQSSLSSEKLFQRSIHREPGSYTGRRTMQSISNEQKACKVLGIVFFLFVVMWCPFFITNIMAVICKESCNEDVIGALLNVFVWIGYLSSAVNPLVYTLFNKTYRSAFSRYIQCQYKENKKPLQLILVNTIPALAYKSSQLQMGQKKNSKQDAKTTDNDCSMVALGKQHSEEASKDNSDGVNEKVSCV

5-hydroxytryptamine receptor 7, sequence (P34969 whole entry): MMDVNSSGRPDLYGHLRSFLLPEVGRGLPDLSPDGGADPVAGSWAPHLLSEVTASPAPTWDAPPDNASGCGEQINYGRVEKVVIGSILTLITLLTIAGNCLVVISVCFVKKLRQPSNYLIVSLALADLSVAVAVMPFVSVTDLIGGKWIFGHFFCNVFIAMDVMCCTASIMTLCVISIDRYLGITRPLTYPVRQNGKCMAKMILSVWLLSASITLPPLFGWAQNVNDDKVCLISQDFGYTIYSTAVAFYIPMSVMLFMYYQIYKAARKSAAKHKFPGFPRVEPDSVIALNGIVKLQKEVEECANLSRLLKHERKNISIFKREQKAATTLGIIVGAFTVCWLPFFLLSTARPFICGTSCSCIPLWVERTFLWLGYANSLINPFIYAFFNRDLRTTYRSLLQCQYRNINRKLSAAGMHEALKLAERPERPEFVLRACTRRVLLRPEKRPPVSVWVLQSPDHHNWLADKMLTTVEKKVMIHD

Ki [1] [µM]	Ki [2] [µM]	Ki [4] [µM]	Ki [7] [µM]	SMILES	Ratio Ki (Homo sapiens [3])	Ratio Ki (Homo sapiens [5])	Ratio Ki (Homo sapiens [6])
0.121	13.8	1.69	0.343	O=C1Nc2ccccc2C12CCN(CCN1CCC(Oc3ccc(Cl)cc3)CC1)C2 (centres undefined)	14	2.8	114
0.021	14.2	4.74	0.059	O=C1Nc2ccccc2C12CCN(CCN1CCN(c3ccc(F)cc3)CC1)C2 (centres undefined)	226	2.8	674
0.275	52	5.28	0.259	O=C1Nc2ccccc2C12CCN(CCN1CCC(c3ccc(F)cc3)CC1)C2 (centres undefined)	19.2	0.9	189
0.1	6	6.56	0.496	O=C1Nc2ccccc2C12CCN(CCN1CCN(c3ccccc3)CC1)C2 (centres undefined)	65.6	5	60.1
0.245	1.1	2.84	0.452	O=C1Nc2ccccc2C12CCN(CCN1CCN(c3ccccc3Cl)CC1)C2 (centres undefined)	11.6	1.8	4.5
0.529	48.2	7.75	17.3	O=C(c1ccc(Cl)cc1)N1CCN(CCN2CCC3(C2)C(=O)Nc2ccccc23)CC1 (centres undefined)	14.6	32.8	91.2
0.067	2.89	5.56	0.715	O=C1Nc2ccccc2C12CCN(CCCN1CCN(c3ccc(Cl)cc3)CC1)C2 (centres undefined)	83	10.7	43.1
0.029	3.76	4.74	0.068	O=C1Nc2ccccc2C12CCN(CCN1CCN(c3ccc(Cl)cc3)CC1)C2 (centres undefined)	163	2.3	130
0.055	2.69	2	0.351	O=C1Nc2ccccc2C12CCN(CCN1CCN(c3cccc(Cl)c3)CC1)C2 (centres undefined)	36.5	6.4	48.9
0.038	4.05	1.13	0.27	O=C1Nc2ccccc2C12CCN(CCN1CCN(c3ccc(Cl)c(Cl)c3)CC1)C2 (centres undefined)	29.8	7.1	107
0.284	14.9	4.58	0.404	O=C1Nc2ccccc2C12CCN(CCN1CCC(c3ccc(Cl)cc3)CC1)C2 (centres undefined)	16.1	1.4	52.5

SMILES	Ki [1] [µM]	Ki [2] [µM]	Ki [4] [µM]	Ki [7] [µM]	Ratio Ki (Homo sapiens [3])	Ratio Ki (Homo sapiens [5])	Ratio Ki (Homo sapiens [6])
O=C1Nc2ccccc2C12CCN(CCN1CC=C(c3ccc(F)cc3)CC1)C2 (centres undefined)	0.043	3.95	6.27	0.075	146	1.7	91.8
